Molecule `CC(NC(=O)c1cc2ccccc2[nH]1)C(=O)O` (racemic) showed a melting point of 240 °C.
Regarding `CCOCc1nc2c(N)nc3cccnc3c2n1CC1(O)CC1`, the melting point fell in the range of 178 to 179 °C.
For the molecule `COc1cccc2c3c(n(C)c12)SCCC3=O`, the melting point fell in the range of 106 to 108 °C.
`CC(=O)OC1CSC(Oc2cccc(-c3cnccn3)c2)C(OC(C)=O)C1OC(C)=O` (configuration not stated) came in with a melting point of 92 °C.
As to `Cn1c(C(F)(F)F)cc(=O)n(-c2c(F)ccc3nc(Cl)sc23)c1=O`, the melting point lay within 69 to 71 °C.
The same measure for `CN(CC1Nc2cc(Cl)c(S(N)(=O)=O)cc2S(=O)(=O)N1)C(=O)CBr` (configuration not stated): 150 to 152 °C; for `CCc1c(C)noc1NS(=O)(=O)c1cccc2c(N(C)C)cccc12`: 55 to 85 °C; for `C#CCOc1ccc2c(c1)c(-c1ccc(C(C)C)cc1)nc(=O)n2Cc1cccc(N2CCCC2=O)c1`: 68 to 69 °C.
`COC(=O)C1C(c2ccc(F)c(C)c2)=CCCC1(C)C` (configuration not stated): the melting point lay within 136 to 138 °C.
In the case of `NS(=O)(=O)c1cc2c(s1)S(=O)(=O)CC(Br)C2O` (configuration not stated), the melting point was in the range of 217 to 219 °C.
`COc1cccc(OC)c1S(=O)(=O)OCC(=NNc1ccccc1)c1ccccc1`: the melting point came out at 168 °C.
Molecule `CC(=O)OC12Oc3cc(C)ccc3C1(OC(C)=O)C(=O)c1ccccc12` (configuration not stated) showed a melting point of 167 to 169 °C.
`CN(C)Cc1c(-c2ccccc2)[nH]c2nccnc12` had a melting point of 191 to 192 °C.
`COc1cc2c(cc1C=O)C(C)(C)C(=O)N2C` displayed a melting point of 192 to 194 °C.
Regarding `CCCn1ccn(-c2ccc(N3CCN(c4ccc(OC)cc4)CC3)cc2)c1=O`, the melting point came out at 184 °C.
The same measure for `COc1cccc2c(=O)c3c(O)cc(OCC(O)CCl)cc3oc12` (configuration not stated): 184 °C; for `CC(=O)C1(O)CCC2C3C=C(Cl)C4=CC(=O)OCC4(C)C3CCC21C` (configuration not stated): 218 to 221 °C.
Turning to `C=CCN1C(=O)C[N+]([O-])=C(c2ccccc2F)c2cc(Cl)ccc21`, the melting point was determined as 183 °C.
The molecule `CSCC[C@H](NC(=O)N[C@@H](CCSC)C(=O)O)C(=O)O` gave a melting point of 167 to 180 °C.
`CC(C)(C)OCCCNC(=O)c1n[nH]cc1NC(=O)c1ccccn1`: the melting point lay within 193 to 194 °C.
Take `O=C1C(=O)N2c3c(cc(Cl)cc31)CCC2c1ccccc1` (configuration not stated): the melting point lay within 173 to 174 °C.
The figure for `COc1cc(COC(C)=O)c(COC(C)=O)cc1OCCCl` is 79 to 80 °C; for `CC(C)(Nc1cc(Cl)ccc1[N+](=O)[O-])C(=O)O` it is 146 to 147 °C.
On to `CC(=O)OC1(C)C=CC2=NC(c3cc(C)c(O)c(C)c3)=CC2=C1` (configuration not stated), for which the melting point lay in the range of 161 to 162 °C.
The same measure for `Nc1nc(N2CCCC2)c2nc[nH]c2n1`: 265 °C.
With `COC(=O)c1c(OCc2ccccc2)ccc2c1CC[C@H](NC(C)C)[C@@H]2O` (relative stereo), the melting point was in the range of 91 to 92 °C.
Molecule `CC1(C)Oc2ccsc2C(N2CCCC2=O)C1OC(=O)c1ccccc1` (configuration not stated) yielded a melting point of 130 to 132 °C.
Take `CC(Cn1ncnn1)n1nnc2cc3c(=O)n(CCF)nnc3cc2c1=O` (configuration not stated): the melting point fell in the range of 196 to 198 °C.
For the molecule `O=C(O)c1ccc(NCCNC(=O)C2Cc3ccccc3N2S(=O)(=O)c2ccc(-c3cc(C(F)(F)F)ccc3Cl)cc2)cc1` (configuration not stated), the melting point came out at 130 °C.
The same measure for `CN1CCC(N2CCN(c3cccc(-c4cn[nH]c4N)c3)CC2)CC1`: 213 to 220 °C; for `COC(=O)c1ccc(C(F)(F)F)nc1S(N)(=O)=O`: 187 to 188 °C; for `CCCOC(=O)c1c(CN2CCCCC2)nc2cc(OC)c(OC)cc2c1-c1ccc(OC)c(OC)c1`: 129 to 131 °C.
The same measure for `Cc1cccc2c(=O)c3cccc(-c4ccccc4)c3oc12`: 140 to 141 °C.
Consider `Cc1ccc(C(Br)=NOS(C)(=O)=O)cc1`, for which the melting point lay within 82.5 to 91.5 °C.
Take `NC(=O)CN1C(=O)Cc2cc(Cl)ccc21`: the melting point turned out to be 226 °C.
Regarding `CSc1nccc(Oc2ccc(NC(=O)c3cc(F)cc(OC4CCCCC4)c3)c3ccccc23)n1`, the melting point fell in the range of 130 to 132 °C.
`CCCCCCCCCCCCCCCCCCS(=O)(=O)Nc1ccc(O)cc1` gave a melting point of 142 °C.
On to `COC(=O)COc1ccc(S(=O)(=O)c2ccc(O)cc2)cc1`, for which the melting point fell in the range of 159 to 161 °C.
As to `NC(=O)N1C(=O)C(C(=O)c2cccs2)c2ncc(F)cc21` (configuration not stated), the melting point was found to be 265 °C.
In turn, `CC(C)(CO)CCCC(O)CCC(O)CCCC(C)(C)CO` (configuration not stated) showed a melting point of 96 to 97 °C.
The figure for `CC(C)(C)c1cc(C(=O)Nc2cccc(SCc3cccnc3)c2)ccc1O` is 95 to 100 °C.
As for `CC(CCCCCOCCc1ccc(N(C)C)cc1)NCc1c(CO)ccc(O)c1CO` (configuration not stated), the melting point was 100 to 101 °C.
`O=C(NCc1ccccc1)c1ccnc(-n2ccc(-c3ccccc3)cc2=O)c1` returned a melting point of 162 to 163 °C.
With `CCOC(=O)OC1CCN(C(=O)Cn2c(=O)sc3ccc(Cl)cc32)CC1`, the melting point lay in the range of 196 to 197 °C.
`O=C(O)[C@H](CCc1ccccc1)NS(=O)(=O)c1ccc2c(c1)Sc1ccccc1O2` came in with a melting point of 149 to 154 °C.
Consider `O=S(=O)(Nc1ccccc1Oc1cccc2cccnc12)c1ccc(F)cc1`, for which the melting point lay in the range of 243 to 244 °C.
`Cc1nc2n(c(=O)c1C(N)=O)C(C)CCC2=NNc1ccccc1` (configuration not stated): the melting point lay in the range of 235 to 237 °C.
On to `NC1=Nc2ccccc2C2CCCC12F` (configuration not stated), for which the melting point fell in the range of 174 to 176 °C.
Turning to `CCOC(=O)c1cnc2c(c1Cl)CCCCCC2`, the melting point was in the range of 33 to 36 °C.
The molecule `COc1ccc(C2=C(C#N)C(c3ccccc3Cl)c3c[nH]nc3N2)cc1` (configuration not stated) had a melting point of 124 °C.
In turn, `CCOc1ccc(OCC(=O)O)c2c1C(=O)N(CSc1nnnn1-c1ccccc1)S2(=O)=O` yielded a melting point of 187 to 189 °C.
In turn, `O=C(O)c1cn(-c2ccc(F)cc2)c(-c2ccc(Cl)cc2)cc1=O` had a melting point of 199 to 204 °C.
Molecule `CCNS(=O)(=O)c1cccc(NC(=O)c2cnn3c(C(F)(F)F)cc(-c4ccc(C(F)(F)F)c(OCC)c4)nc23)c1` showed a melting point of 226 °C.
The figure for `CC(=O)O[C@@H]1[C@H](OC(C)=O)[C@@H](C)O[C@H]1n1c(Cl)nc2c(Cl)c(Cl)c(Cl)cc21` is 126 to 127 °C; for `O=C1/C(=C/C=C/c2ccccc2)CCc2cc(OCCn3ccnc3)ccc21` it is 198 to 200 °C.
Turning to `COC(=O)C(F)=CCS(=O)(=O)c1ccccc1`, the melting point is 104 to 105 °C.
As for `FC(F)(F)c1cccc(N2CCN(Cc3ccc4c(c3)NCCN4)CC2)c1`, the melting point was 88 to 91 °C.
The molecule `CN(C)CCCC1(C(=O)O)CCCCC1(O)c1ccccc1` (configuration not stated) registered a melting point of 144 to 145 °C.
The figure for `O=Cc1cnn(-c2ccc(C(F)(F)F)cc2[N+](=O)[O-])c1Br` is 195 to 198 °C; for `O=C(O)CCSC(=S)Nc1ccc(Oc2ccc([N+](=O)[O-])cc2)cc1` it is 146 °C; for `CC(=O)NCc1coc2cc(NS(C)(=O)=O)c(Oc3ccccc3)cc2c1=O` it is 240 to 242 °C.
The figure for `c1ccc(-c2cnns2)cc1` is 46 to 48 °C.
The same measure for `C=CS(=O)(=O)NCCCc1ccc(C2=NNC(=O)CC2)cc1`: 133 to 135 °C; for `NC(=S)c1cc(F)c2ncc(C(=O)NCc3ccc(Cl)cc3)c(O)c2c1`: 247 to 248 °C; for `Nc1ncc2c(n1)N(c1cccc(CCO)c1)C(=O)N(c1ccccc1Br)C2`: 154 °C.
Take `CSc1ccc(-c2coc3ccc(-c4nnc(N)o4)cc23)cc1`: the melting point is 255 to 256 °C.
`Clc1cncc(Oc2cccc(Cl)n2)c1` gave a melting point of 46 to 47 °C.
For `Cc1c(NC(=O)c2ccc(OCC3CC3)cc2)ccc2cc(CN3CCC(C)(O)CC3)n(C)c12`, the melting point lay in the range of 152 to 155 °C.
`CC(c1ccccc1)n1cncc1C#N` (single isomer, unassigned; (+)): the melting point lay within 97 to 99 °C.
The same measure for `O=c1[nH]nc(-c2ccc(NN=C(c3ccc(O)cc3)c3ccc(O)cc3O)cc2)c2ccccc12`: 150 to 160 °C; for `Cn1cc(-c2cc(-c3cnc4c(c3)CCN4)ccn2)n(-c2ccc(C(C)(C)C#N)cc2)c1=O`: 247 °C; for `O[C@H](COc1cccc2[nH]ccc12)CN1CCC(c2c[nH]c3ccc(F)cc23)CC1`: 94 to 97 °C.
Take `Cn1ccc2cccc(C(=O)N3CCN(c4ncccn4)CC3)c21`: the melting point lay within 159 to 160 °C.
As to `COC(=O)c1cccc(C(=O)c2ccc(O)c(OC)c2)c1`, the melting point was in the range of 133 to 134 °C.
The same measure for `CC(=O)NC[C@H]1CN(c2ccc(N3CCC(n4ccnc4)CC3)c(F)c2)C(=O)O1`: 160 to 162 °C; for `CNc1ncc2c(=O)n(C)c(=O)n(C)c2n1`: 260 °C; for `CCOC(=O)c1cn(C)c2sc(CCl)cc2c1=O`: 111 to 112 °C.
As for `COc1cc2c(c3c1c(=O)c1cc4ccccc4cc1n3C)[C@H](OC(=O)N(C)C)[C@H](OC(=O)N(C)C)C(C)(C)O2`, the melting point amounted to 173 °C.
The figure for `COc1ccccc1C(=O)Nc1nc(-c2ccccc2)c(-c2ccc(=O)n(C(C)C)n2)s1` is above 250 °C; for `O=C(OCN1C(=O)CN(CCN2CC(=O)N(COC(=O)c3ccc4c(c3)OCO4)C(=O)C2)CC1=O)c1ccc2c(c1)OCO2` it is 195 to 198 °C.
`CCCC1CCC(C2Cc3c4c(c(F)c(F)c3O2)OCCC4)CC1` (configuration not stated): the melting point was determined as 96 °C.
`O=Cc1ccc(OS(=O)(=O)C(F)(F)F)cc1Cl` registered a melting point of 125 to 127 °C.
The same measure for `CC(C)(C)C(NC(=O)Cc1ccc2c(c1)OCCO2)NC(=NC#N)Nc1cccc2ncccc12` (configuration not stated): 191 to 192 °C; for `[N-]=[N+]=NCCc1ccc(C(N)=O)s1`: 104 to 105 °C; for `Cc1cc(-c2c3ccccc3c(C)c3sc4ccccc4c23)cc(C)c1OCC(=O)O`: 155 to 181 °C.
In turn, `COc1cc(Nc2ncc(C#N)c(-c3ccc(CO)cc3)n2)cc(OC)c1OC` came in with a melting point of 188 to 191 °C.
On to `C=CCc1cc2c(ccc(=O)n2CC=C(C)C)c(CC=C)c1O`, for which the melting point lay in the range of 187 to 189 °C.

What is called melting point is the temperature, or range, at which the solid turns liquid.
